Experimental data taken from ChEMBL document CHEMBL3885881, “DrugMatrix”.

Species: Rattus norvegicus
Experiment: DrugMatrix - Regimen: Daily Repeat
Assay type: toxicity, organism-based, Sprague-Dawley
Design: regimen Daily Repeat, gender Male, age 6-8 weeks
Conditions: in vivo, sc, route subcutaneous, […]; for ABSOLUTE BASOPHIL / ABSOLUTE EOSINOPHIL / ABSOLUTE LYMPHOCYTE / ABSOLUTE MONOCYTE / ABSOLUTE SEGMENTED NEUTROPHIL / BASOPHIL / EOSINOPHIL / ERYTHROCYTE COUNT / HEMATOCRIT / HEMOGLOBIN / LEUKOCYTE COUNT / LYMPHOCYTE / MEAN CORPUSCULAR HEMOGLOBIN / MEAN CORPUSCULAR HEMOGLOBIN CONCENTRATION / MEAN CORPUSCULAR VOLUME / MONOCYTE / NEUTROPHIL / NUCLEATED RED BLOOD CELLS / PLATELET COUNT: tissue Blood; for ALANINE AMINOTRANSFERASE / ALBUMIN / ALKALINE PHOSPHATASE / ASPARTATE AMINOTRANSFERASE / BLOOD UREA NITROGEN / CARBON DIOXIDE / CHLORIDE / CHOLESTEROL / CREATINE PHOSPHOKINASE / CREATININE / GLUCOSE / LACTATE DEHYDROGENASE / LIPASE / PHOSPHORUS / POTASSIUM / SODIUM / TOTAL BILIRUBIN / TOTAL PROTEIN / URIC ACID: tissue Plasma
[1] = 0 mg/kg, 72 h, dose level Control, time 3 day
[2] = 0 mg/kg, 120 h, dose level Control, time 5 day
[3] = 50 mg/kg, 72 h, dose level Low, time 3 day

CCCCOC(=O)c1ccc(N)cc1 [BUTAMBEN]
ABSOLUTE BASOPHIL [1]: 0 CELLS/uL
ABSOLUTE EOSINOPHIL [1]: 42.67 CELLS/uL
ABSOLUTE LYMPHOCYTE [1]: 10202 CELLS/uL
ABSOLUTE MONOCYTE [1]: 261.5 CELLS/uL
ABSOLUTE SEGMENTED NEUTROPHIL [1]: 2193.83 CELLS/uL
BASOPHIL [1]: 0%
EOSINOPHIL [1]: 0.33%
ERYTHROCYTE COUNT [1]: 5.63 x10E6/uL
HEMATOCRIT [1]: 35.35%
HEMOGLOBIN [1]: 13.07 G/DL
LEUKOCYTE COUNT [1]: 12.7 x10E3/uL
LYMPHOCYTE [1]: 81.17%
MEAN CORPUSCULAR HEMOGLOBIN [1]: 23.23 pg
MEAN CORPUSCULAR HEMOGLOBIN CONCENTRATION [1]: 36.97 G/DL
MEAN CORPUSCULAR VOLUME [1]: 62.82 fL
MONOCYTE [1]: 2%
NEUTROPHIL [1]: 16.5%
NUCLEATED RED BLOOD CELLS [1]: 0 /100WBC
PLATELET COUNT [1]: 1180.33 x10E3/uL
ALANINE AMINOTRANSFERASE [1]: 48.67 u/L
ALBUMIN [1]: 4.08 G/DL
ALKALINE PHOSPHATASE [1]: 360.67 u/L
ASPARTATE AMINOTRANSFERASE [1]: 85.5 u/L
BLOOD UREA NITROGEN [1]: 17.83 mg/dL
CARBON DIOXIDE [1]: 26.17 mmol/L
CHLORIDE [1]: 101.83 MEQ/L
CHOLESTEROL [1]: 71 mg/dL
CREATINE PHOSPHOKINASE [1]: 515.17 u/L
CREATININE [1]: 0.22 mg/dL
GLUCOSE [1]: 192.5 mg/dL
LACTATE DEHYDROGENASE [1]: 214.67 u/L
LIPASE [1]: 8.5 u/L
PHOSPHORUS [1]: 12.95 mg/dL
POTASSIUM [1]: 6.39 MEQ/L
SODIUM [1]: 142.38 MEQ/L
TOTAL BILIRUBIN [1]: 0.18 mg/dL
TOTAL PROTEIN [1]: 5.95 G/DL
URIC ACID [1]: 1.83 mg/dL
ABSOLUTE BASOPHIL [2]: 0 CELLS/uL
ABSOLUTE EOSINOPHIL [2]: 188.5 CELLS/uL
ABSOLUTE LYMPHOCYTE [2]: 12360.83 CELLS/uL
ABSOLUTE MONOCYTE [2]: 64.33 CELLS/uL
ABSOLUTE SEGMENTED NEUTROPHIL [2]: 1986.33 CELLS/uL
BASOPHIL [2]: 0%
EOSINOPHIL [2]: 1.33%
ERYTHROCYTE COUNT [2]: 5.52 x10E6/uL
HEMATOCRIT [2]: 35.82%
HEMOGLOBIN [2]: 13.25 G/DL
LEUKOCYTE COUNT [2]: 14.6 x10E3/uL
LYMPHOCYTE [2]: 84.5%
MEAN CORPUSCULAR HEMOGLOBIN [2]: 24.05 pg
MEAN CORPUSCULAR HEMOGLOBIN CONCENTRATION [2]: 36.98 G/DL
MEAN CORPUSCULAR VOLUME [2]: 64.97 fL
MONOCYTE [2]: 0.5%
NEUTROPHIL [2]: 13.67%
NUCLEATED RED BLOOD CELLS [2]: 0 /100WBC
PLATELET COUNT [2]: 1297.83 x10E3/uL
ALANINE AMINOTRANSFERASE [2]: 51.17 u/L
ALBUMIN [2]: 4.08 G/DL
ALKALINE PHOSPHATASE [2]: 393.17 u/L
ASPARTATE AMINOTRANSFERASE [2]: 111 u/L
BLOOD UREA NITROGEN [2]: 18.17 mg/dL
CARBON DIOXIDE [2]: 25 mmol/L
CHLORIDE [2]: 105.17 MEQ/L
CHOLESTEROL [2]: 65.5 mg/dL
CREATINE PHOSPHOKINASE [2]: 911.5 u/L
CREATININE [2]: 0.21 mg/dL
GLUCOSE [2]: 183 mg/dL
LACTATE DEHYDROGENASE [2]: 189 u/L
LIPASE [2]: 8.33 u/L
PHOSPHORUS [2]: 12.78 mg/dL
POTASSIUM [2]: 6.05 MEQ/L
SODIUM [2]: 144.57 MEQ/L
TOTAL BILIRUBIN [2]: 0.25 mg/dL
TOTAL PROTEIN [2]: 5.83 G/DL
URIC ACID [2]: 1.58 mg/dL
ABSOLUTE BASOPHIL [3]: 0 CELLS/uL
ABSOLUTE EOSINOPHIL [3]: 143.67 CELLS/uL
ABSOLUTE LYMPHOCYTE [3]: 12216.67 CELLS/uL
ABSOLUTE MONOCYTE [3]: 393.33 CELLS/uL
ABSOLUTE SEGMENTED NEUTROPHIL [3]: 2079.67 CELLS/uL
BASOPHIL [3]: 0%
EOSINOPHIL [3]: 1%
ERYTHROCYTE COUNT [3]: 5.53 x10E6/uL
HEMATOCRIT [3]: 33.47%
HEMOGLOBIN [3]: 12.13 G/DL
LEUKOCYTE COUNT [3]: 14.83 x10E3/uL
LYMPHOCYTE [3]: 82.33%
MEAN CORPUSCULAR HEMOGLOBIN [3]: 21.93 pg
MEAN CORPUSCULAR HEMOGLOBIN CONCENTRATION [3]: 36.23 G/DL
MEAN CORPUSCULAR VOLUME [3]: 60.5 fL
MONOCYTE [3]: 2.67%
NEUTROPHIL [3]: 14%
NUCLEATED RED BLOOD CELLS [3]: 0 /100WBC
PLATELET COUNT [3]: 1210 x10E3/uL
ALANINE AMINOTRANSFERASE [3]: 56.33 u/L
ALBUMIN [3]: 3.9 G/DL
ALKALINE PHOSPHATASE [3]: 352 u/L
ASPARTATE AMINOTRANSFERASE [3]: 93.33 u/L
BLOOD UREA NITROGEN [3]: 15.67 mg/dL
CARBON DIOXIDE [3]: 27 mmol/L
CHLORIDE [3]: 103.67 MEQ/L
CHOLESTEROL [3]: 75.33 mg/dL
CREATINE PHOSPHOKINASE [3]: 408 u/L
CREATININE [3]: 0.24 mg/dL
GLUCOSE [3]: 178.67 mg/dL
LACTATE DEHYDROGENASE [3]: 150.67 u/L
LIPASE [3]: 8.33 u/L
PHOSPHORUS [3]: 12.53 mg/dL
POTASSIUM [3]: 5.89 MEQ/L
SODIUM [3]: 144.57 MEQ/L
TOTAL BILIRUBIN [3]: 0.2 mg/dL
TOTAL PROTEIN [3]: 5.57 G/DL
URIC ACID [3]: 1.43 mg/dL
